According to patent US20030143729A1 (Synaptic Pharmaceutical Corporation, priority 1992, published 2003):
Like-named read-outs stand apart in the source and are kept apart here.

What was measured:
[1] = target: T1, rGAT-2 (Rattus norvegicus, UniProt P31646); test: [3H]GABA uptake, full competition curves at cloned rGAT-2 (transient transfection, COS cells); type: cell-based
T1 construct: randomly primed GAT-2 full-length or GAT-3 truncated or full-length cDNA clones; expressed in transfected cells; host or cells: COS cells, transient, plasmid pEVJB-rB14b
T1 sequence (P31646 1-602): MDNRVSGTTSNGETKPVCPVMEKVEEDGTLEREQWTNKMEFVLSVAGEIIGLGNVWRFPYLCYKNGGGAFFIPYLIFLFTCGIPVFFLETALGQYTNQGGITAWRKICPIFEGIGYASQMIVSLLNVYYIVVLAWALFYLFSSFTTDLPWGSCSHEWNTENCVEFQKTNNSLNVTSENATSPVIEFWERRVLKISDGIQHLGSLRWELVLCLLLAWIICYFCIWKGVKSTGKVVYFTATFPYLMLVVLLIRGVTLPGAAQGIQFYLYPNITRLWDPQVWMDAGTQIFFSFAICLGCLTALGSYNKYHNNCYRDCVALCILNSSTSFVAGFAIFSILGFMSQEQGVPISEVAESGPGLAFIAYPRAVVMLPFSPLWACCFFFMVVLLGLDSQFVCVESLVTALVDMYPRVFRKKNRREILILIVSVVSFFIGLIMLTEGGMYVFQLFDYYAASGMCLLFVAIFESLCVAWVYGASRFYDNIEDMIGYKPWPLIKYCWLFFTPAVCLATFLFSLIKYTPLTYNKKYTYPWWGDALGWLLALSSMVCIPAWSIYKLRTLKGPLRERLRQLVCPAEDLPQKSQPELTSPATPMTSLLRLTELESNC

[2] = target: T2, TAUT (Rattus norvegicus, UniProt P31643); test: [3H]taurine uptake, full competition curves at cloned TAUT (transient transfection, COS cells); type: cell-based
T2 sequence (P31643 1-621): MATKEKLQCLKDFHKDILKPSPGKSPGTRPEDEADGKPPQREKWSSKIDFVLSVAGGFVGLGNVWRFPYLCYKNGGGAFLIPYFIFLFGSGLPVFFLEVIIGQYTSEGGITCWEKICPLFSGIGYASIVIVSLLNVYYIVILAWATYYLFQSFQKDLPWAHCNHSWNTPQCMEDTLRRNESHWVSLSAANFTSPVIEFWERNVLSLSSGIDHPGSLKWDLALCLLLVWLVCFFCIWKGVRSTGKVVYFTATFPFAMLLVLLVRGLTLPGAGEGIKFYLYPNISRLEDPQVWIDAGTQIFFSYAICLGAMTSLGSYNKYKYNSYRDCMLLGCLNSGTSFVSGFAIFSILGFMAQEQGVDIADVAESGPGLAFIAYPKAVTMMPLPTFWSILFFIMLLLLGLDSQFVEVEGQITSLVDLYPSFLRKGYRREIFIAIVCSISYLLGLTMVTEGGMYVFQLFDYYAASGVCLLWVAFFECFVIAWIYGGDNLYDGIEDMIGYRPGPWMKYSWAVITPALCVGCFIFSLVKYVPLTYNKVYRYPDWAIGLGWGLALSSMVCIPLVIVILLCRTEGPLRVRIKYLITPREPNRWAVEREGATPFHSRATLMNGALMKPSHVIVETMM

[3] = target: T3, rat GAT-3 (Rattus norvegicus, UniProt P31647)
T3 sequence (P31647 54-627 limits assumed): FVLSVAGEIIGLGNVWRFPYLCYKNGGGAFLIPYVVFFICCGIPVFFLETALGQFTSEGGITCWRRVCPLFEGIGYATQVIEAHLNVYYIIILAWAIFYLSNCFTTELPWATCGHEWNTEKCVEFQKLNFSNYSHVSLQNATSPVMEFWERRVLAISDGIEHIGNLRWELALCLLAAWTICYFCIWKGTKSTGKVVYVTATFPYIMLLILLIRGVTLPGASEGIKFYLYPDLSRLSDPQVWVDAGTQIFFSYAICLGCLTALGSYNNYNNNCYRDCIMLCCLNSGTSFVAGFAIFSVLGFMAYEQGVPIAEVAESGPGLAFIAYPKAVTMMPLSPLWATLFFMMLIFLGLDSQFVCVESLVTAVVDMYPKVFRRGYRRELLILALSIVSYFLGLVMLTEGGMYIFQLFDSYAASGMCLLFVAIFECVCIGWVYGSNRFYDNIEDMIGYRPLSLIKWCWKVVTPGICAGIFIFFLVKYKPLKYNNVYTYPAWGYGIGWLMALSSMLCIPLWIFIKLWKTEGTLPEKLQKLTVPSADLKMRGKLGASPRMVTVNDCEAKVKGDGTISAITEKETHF
Procedure: Cells grown in 24-well plates were washed 3× with HEPES-buffered saline (HBS, in mM: NaCl, 150; HEPES, 20; CaCl2, 1; glucose, 10; KCl, 5; MgCl2, 1; pH 7.4) and allowed to equilibrate on a 37° C. slide warmer. After 10 minutes the medium was removed and unlabeled drugs in HBS were added (450 μl/well). […] Plates were incubated at 37° C. for 10 minutes, then washed rapidly 3× with ice-cold HBS, using a 24-position plate washer (Brandel, Gaithersburg, Mass.; model PW-12). Cells were solubilized with 0.05% sodium deoxycholate/0.1N NaOH (0.25 ml/well), an aliquot neutralized with 1N HCl, and radioactivity was determined by scintillation counting. Protein was quantified in an aliquot of the solubilized cells using a BIO-RAD protein assay kit, according to the manufacturer's directions.
Lipophilic inhibitors were dissolved in DMSO.
Data Analysis: Competition curves were conducted in duplicate, using 10 concentrations of unlabeled drug.
COS cells grown in 75 cm^2 or 150 cm^2 flasks in DMEM with 10% bovine calf serum, 100 U/ml penicillin G, and 100 μg/ml streptomycin sulfate (37° C., 5% CO2) were transfected using DEAE-dextran. On the day following transfection the cells were split into 24-well assay plates coated with poly-D-lysine (10 μg/ml), and transport was measured 24 hours later.
After 10 minutes the medium was removed and unlabeled drugs in HBS were added (450 μl/well). […] Plates were incubated at 37° C. for 10 minutes, then washed rapidly 3× with ice-cold HBS, using a 24-position plate washer (Brandel, Gaithersburg, Mass.; model PW-12). Cells were solubilized with 0.05% sodium deoxycholate/0.1N NaOH (0.25 ml/well), an aliquot neutralized with 1N HCl, and radioactivity was determined by scintillation counting. Protein was quantified in an aliquot of the solubilized cells using a BIO-RAD protein assay kit, according to the manufacturer's directions.

[4] = system: O-2A/Type 2 astrocytes; test: [3H]GABA uptake in O-2A/Type 2 astrocyte cultures; type: cell-based, rat
Procedure: Preparation of primary rat astrocyte cell cultures: Primary glial cultures were established from newborn Sprague-Dawley rat brains. Brains minus cerebella were removed aseptically and carefully dissected free of meninges. […] The cells were dissociated by trituration through a serological pipette. Separate procedures were then used for the preparation of Type-1 and O-2A/Type-2 astrocyte cultures, as will now be described.
For the preparation of Type-1 astrocyte cultures, cells were plated onto uncoated 75 cm^2 flasks at low density (1 brain per 10 flasks, or approximately 8×10^4 cells/cm^2). The medium was changed the following day and twice a week thereafter. […] Cultures highly enriched in O-2A/Type-2 cells were prepared from mixed astrocyte cultures which consisted of a monolayer of Type 1 cells upon which rested large numbers of O-2A/Type 2 cells. […] The same brain cell suspensions as described above were plated at high density (1 brain per 75 cm^2 flask, or approximately 8×10^5 cells/cm^2) into flasks coated with poly-D-lysine (10 μg/ml). After 24 hours the medium was replaced and the cultures were subsequently fed twice a week. […] Complete medium was added to the flasks and the cell suspension was removed gently, care being taken to not disrupt the underlying Type 1 astrocyte monolayer. The cells were pelleted at low speed, resuspended in complete medium, and added to 24-well plates coated with poly-D-lysine (10 μg/ml). […] No attempt was made to distinguish or separate O-2A precursors from the more differentiated Type 2 astrocytes.

[5] = system: neuronal cultures; test: [3H]GABA uptake in primary neuronal cell cultures; type: cell-based, rat
Procedure: Brains were removed aseptically from E17 embryonic Sprague-Dawley rats brains, carefully dissected free of meninges, and kept on ice. A single-cell suspension was made by mincing the brains, followed by trituration through a serological pipette. […] On day three cytosine β-D-arabinofuransoside (3 μM) was added to control the proliferation of non-neuronal cells. The cultures were used for transport assay approximately one week after plating.

[6] = Rattus norvegicus, Astrocyte, 3 h, read-out: IC50 for inhibition of [3H]GABA uptake, O-2A/Type 2 astrocytes with NNC-711, in the presence of 10 μM NNC-711
[7] = Rattus norvegicus, Astrocyte, 3 h, read-out: IC50 for inhibition of [3H]GABA uptake, O-2A/Type 2 astrocytes, absence of NNC-711
[8] = Rattus norvegicus, Neuron, read-out: IC50 for inhibition of [3H]GABA uptake, Neurons with NNC-711, in the presence of 10 μM NNC-711
[9] = Rattus norvegicus, Neuron, read-out: IC50 for inhibition of [3H]GABA uptake, Neurons, absence of NNC-711
[10] = read-out: IC50 for inhibition of [3H]GABA uptake, Neurons, absence of NNC-711
[11] = full competition curves, 50 nM [3H]taurine, read-out: IC50 for inhibition of [3H]taurine uptake, TAUT (Table 8)
[12] = read-out: IC50 for inhibition of [3H]GABA uptake, rGAT-2 (Table 8), full competition curves, 50 nM [3H]GABA
[13] = read-out: IC50 for inhibition of [3H]GABA uptake, rGAT-3 (Table 8), full competition curves, 50 nM [3H]GABA
[14] = read-out: IC50 for inhibition of [3H]GABA uptake, O-2A/Type 2 astrocytes with NNC-711, in the presence of 10 μM NNC-711
[15] = read-out: IC50 for inhibition of [3H]GABA uptake, O-2A/Type 2 astrocytes, absence of NNC-711
[16] = read-out: IC50 for inhibition of [3H]GABA uptake, Neurons with NNC-711, in the presence of 10 μM NNC-711

Molecule | IC50 [1] | IC50 [3] | IC50 [4, 6] | IC50 [4, 7] | IC50 [5, 8] | IC50 [5, 9] | IC50 [5, 10] | IC50 [2, 11] | IC50 [1, 12] | IC50 [3, 13] | IC50 [4, 14] | IC50 [4, 15] | IC50 [5, 16] | other results
N[C@@H]1CCC[C@H](C(=O)O)C1 (relative stereo) [ACHC, cis-3-aminocyclohexanecarboxylic acid] | 25900 µM | 55100 µM | 2360 µM | ~35 µM | 1950 µM | ~75 µM | 77 ± 8 µM | – | – | – | – | – | – | IC50 [2]: 9230 µM; IC50 ([4]; Rattus norvegicus, Astrocyte, read-out: IC50 for GABA transport, O-2A/Type 2 astrocytes, in the presence of 10 μM NNC-711): ~2000 µM; IC50 ([5]; Rattus norvegicus, read-out: IC50, NNC-711-resistant GABA transport, neuronal cultures, in the presence of 10 μM NNC-711): ~2000 µM
NCCCC(=O)O [GABA, gamma-aminobutyric acid] | 17 ± 6 µM | 33 ± 10 µM | – | – | – | – | – | 720 ± 170 µM | – | – | – | – | – | –
N=C(N)NCCS(=O)(=O)O [GES, guanidinoethanesulfonic acid] | – | – | – | – | – | – | 2110 µM | 129 µM | 696 ± 110 µM | 915 ± 49 µM | 603 ± 300 µM | 1560 µM | 508 ± 60 µM | –
NCC[C@H](N)C(=O)O [L-DABA, L-(2,4)diaminobutyric acid] | 300 ± 51 µM | 710 ± 237 µM | 91 ± 30 µM | 74 µM | 861 ± 225 µM | 165 ± 20 µM | – | – | – | – | – | – | – | IC50 [2]: 41800 µM
O=C(O)C1=CCCN(CCON=C(c2ccccc2)c2ccccc2)C1 [NNC-711] | – | – | – | – | – | – | 0.28 ± 0.1 µM | 207 µM | 729 ± 319 µM | 349 ± 151 µM | – | 0.07 µM | – | IC50 ([3]; read-out: IC50 for inhibition of [3H]GABA uptake, rat GAT-3, transient transfection, 50 nM [3H]GABA): 349 ± 151 µM; specific [3H]GABA uptake that persisted, O-2A/Type 2 astrocytes ([4]; NNC-711 at 10 μM): 26±4%; specific [3H]GABA uptake that persisted, neuronal cultures ([5]; NNC-711 at 10 μM): 31±1%; IC50 ([5]; read-out: IC50 for [3H]GABA uptake, neuronal cultures): ~0.3 µM
O=C(O)C1=CCCNC1 [guvacine] | 228 ± 38 µM | 378 ± 175 µM | – | – | – | – | – | 1030 µM | – | – | – | – | – | IC50 ([4]; Rattus norvegicus, Astrocyte, 3 h, read-out: IC50 for inhibition of [3H]GABA uptake, O-2A/Type 2 astrocytes): 8 ± 0.9 µM; IC50 ([5]; Rattus norvegicus, Neuron, read-out: IC50 for inhibition of [3H]GABA uptake, Neurons): 14 ± 2 µM
NCCS(=O)O [hypotaurine] | 52 ± 6 µM | 73 ± 7 µM | 29 ± 15 µM | 620 µM | 25 ± 2 µM | 742 ± 200 µM | – | 47 µM | – | – | – | – | – | –
NCCS(=O)(=O)O [taurine, 2-aminoethanesulfonic acid] | 1270 µM | 2860 µM | – | 13000 µM | – | – | – | 48 ± 11 µM | – | – | – | – | – | –
NCCC(=O)O [β-alanine] | 66 ± 9 µM | 110 ± 40 µM | ~25 µM | 2030 µM | ~50 µM | 4060 µM | – | 176 µM | – | – | 24 ± 8 µM | – | 48 ± 10 µM | IC50 ([4]; Rattus norvegicus, Astrocyte, read-out: IC50 for GABA transport, O-2A/Type 2 astrocytes): ~2000 µM; IC50 ([5]; Rattus norvegicus, read-out: IC50 for [3H]GABA uptake, neuronal cultures, absence of NNC-711): ~4000 µM
hydroxynipecotic acid [OH-nipecotic] | – | – | – | – | – | – | 22 ± 2 µM | 4810 µM | 567 ± 50 µM | 467 ± 53 µM | 197 ± 20 µM | 17 ± 3 µM | 304 ± 100 µM | –
